# Reference: ChEMBL document CHEMBL3286383, “4-Benzofuranyloxynicotinamide derivatives are novel potent and orally available TGR5 agonists” (Eur J Med Chem, 2014)
# How the values were obtained:
# [1] = molecular target: T1, G-protein coupled bile acid receptor 1 (Homo sapiens, UniProt Q8TDU6); experiment: Agonist activity at human TGR5 expressed in HEK293 cells co-expressing CRE after 5.5 hrs by luciferase reporter gene assay; assay type: functional, cell-based
# T1 sequence (Q8TDU6 whole entry): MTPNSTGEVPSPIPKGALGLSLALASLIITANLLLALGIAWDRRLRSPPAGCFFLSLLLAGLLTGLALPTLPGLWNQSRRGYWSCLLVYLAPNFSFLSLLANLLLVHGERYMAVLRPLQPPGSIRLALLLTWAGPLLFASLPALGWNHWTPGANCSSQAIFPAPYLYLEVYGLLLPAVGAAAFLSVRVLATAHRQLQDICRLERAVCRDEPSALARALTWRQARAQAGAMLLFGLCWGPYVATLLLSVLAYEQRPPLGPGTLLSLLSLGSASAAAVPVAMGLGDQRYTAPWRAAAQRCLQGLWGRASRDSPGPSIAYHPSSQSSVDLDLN
# [2] = molecular target: T2, G-protein coupled bile acid receptor 1 (Mus musculus, UniProt Q80SS6); experiment: Agonist activity at mouse TGR5 expressed in HEK293 cells co-expressing CRE after 5.5 hrs by luciferase reporter gene assay; assay type: functional, cell-based
# T2 sequence (Q80SS6 whole entry): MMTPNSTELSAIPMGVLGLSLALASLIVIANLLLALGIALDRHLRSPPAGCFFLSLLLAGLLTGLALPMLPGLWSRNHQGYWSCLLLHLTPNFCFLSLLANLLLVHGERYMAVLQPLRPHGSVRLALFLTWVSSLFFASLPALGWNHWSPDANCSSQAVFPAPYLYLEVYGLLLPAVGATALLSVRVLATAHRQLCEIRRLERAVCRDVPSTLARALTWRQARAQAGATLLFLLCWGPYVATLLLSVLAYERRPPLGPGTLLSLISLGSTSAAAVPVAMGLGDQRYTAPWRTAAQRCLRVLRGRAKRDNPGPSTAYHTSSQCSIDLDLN
# [3] = molecular target: T3, G-protein coupled bile acid receptor 1 (Homo sapiens) (UniProt Q8TDU6); experiment: Agonist activity at human TGR5 expressed in HEK293 cells co-expressing CRE at 1 uM after 5.5 hrs by luciferase reporter gene assay; assay type: functional, cell-based
# T3 sequence (whole entry): T1 sequence (Q8TDU6 whole entry)
# [4] = tested on: Nucleic Acid; experiment: Ratio of drug level in ICR mouse gallbladder at 50 mg/kg, po after 3 hrs to EC50 for mouse TGR5 expressed in HEK293 cells; assay type: organism-based; set-up: dose 50 mg/kg
# [5] = Efflux ratio of permeability from apical to basolateral side over basolateral to apical side of human Caco2 cells up to 95 mins by LC-MS/MS analysis; conditions: Caco-2
# [6] = Ratio of plasma concentration in ICR mouse plasma at 50 mg/kg, po after 3 hrs to EC50 for mouse TGR5 expressed in HEK293 cells; assay type: ADME, organism-based; set-up: dose 50 mg/kg, route oral; conditions: in vivo
# [7] = tested on: Nucleic Acid; experiment: Ratio of drug level in ICR mouse bile at 50 mg/kg, po after 3 hrs to EC50 for mouse TGR5 expressed in HEK293 cells; assay type: organism-based; set-up: dose 50 mg/kg
# [8] = tested on: Mus musculus; experiment: Gallbladder toxicity in ICR mouse assessed as increase of gallbladder volume at 50 mg/kg, po after 3 hrs; assay type: organism-based; set-up: dose 50 mg/kg, route oral; conditions: in vivo
# [9] = Apparent permeability of the compound from basolateral to apical side of human Caco2 cells up to 95 mins by LC-MS/MS analysis; conditions: Caco-2
# [10] = Drug level in ICR mouse blood at 50 mg/kg, po after 3 hrs by LC-MS/MS analysis; assay type: ADME, organism-based; set-up: dose 50 mg/kg, route oral; conditions: read-out: Drug uptake
# [11] = tested on: Mus musculus; experiment: Antidiabetic activity in oral glucose loaded ICR mouse assessed as reduction of AUC (0 to 120 mins) of blood glucose level at 50 mg/kg, po by oral glucose tolerance test; assay type: functional; set-up: scale not given: the % may be the effect or the level left
# [12] = Apparent permeability of the compound from apical to basolateral side of human Caco2 cells up to 95 mins by LC-MS/MS analysis; conditions: Caco-2
# [13] = Drug level in ICR mouse bile at 50 mg/kg, po after 3 hrs by LC-MS/MS analysis; assay type: ADME, organism-based; set-up: dose 50 mg/kg, route oral; conditions: read-out: Drug uptake
# [14] = Drug level in ICR mouse gallbladder at 50 mg/kg, po after 3 hrs by LC-MS/MS analysis; assay type: ADME, organism-based, Gall bladder; set-up: dose 50 mg/kg, route oral; conditions: read-out: Drug uptake
# [15] = molecular target: T1, G-protein coupled bile acid receptor 1; experiment: Agonist activity at human TGR5
Structure (SMILES),EC50 [1],EC50 [2],further results
Cc1noc2cc(Oc3ccncc3C(=O)N3CCN(C4CC4)c4ccccc43)ccc12,240 nM,–,–
O=C(c1cnccc1Oc1ccc2sccc2c1)N1CCN(C2CC2)c2ccccc21,16 nM,52 nM,–
CCOC(=O)CNC(=O)Cc1coc2cc(Cl)c(Oc3ccncc3C(=O)N3CCN(C4CC4)c4ccccc43)cc12,520 nM,–,–
CCOC(=O)/C=C/c1oc2ccc(Cl)c(Oc3ccncc3C(=O)N3CCN(C4CC4)c4ccccc43)c2c1C,8.9 nM,16 nM,–
CCOC(=O)CCc1oc2ccc(Cl)c(Oc3ccncc3C(=O)N3CCN(C4CC4)c4ccccc43)c2c1C,18 nM,72 nM,–
O=C(O)c1coc2cc(Cl)c(Oc3ccncc3C(=O)N3CCN(C4CC4)c4ccccc43)cc12,–,–,Activity [3]: 38%
COC(=O)CCc1coc2cc(Cl)c(Oc3ccncc3C(=O)N3CCN(C4CC4)c4ccccc43)cc12,24 nM,82 nM,–
O=C(c1cnccc1Oc1ccc2cc[nH]c2c1)N1CCN(C2CC2)c2ccccc21,162 nM,–,–
O=C(c1cnccc1Oc1ccc2ncsc2c1)N1CCN(C2CC2)c2ccccc21,15 nM,60 nM,–
CCOC(=O)CNC(=O)CCc1oc2ccc(Cl)c(Oc3ccncc3C(=O)N3CCN(C4CC4)c4ccccc43)c2c1C,30 nM,85 nM,–
O=C(c1cnccc1Oc1ccc2[nH]ccc2c1)N1CCN(C2CC2)c2ccccc21,1220 nM,–,–
CCOC(=O)CNC(=O)c1coc2cc(Cl)c(Oc3ccncc3C(=O)N3CCN(C4CC4)c4ccccc43)cc12,1400 nM,–,–
O=C(c1cnccc1Oc1cccc2ccccc12)N1CCN(C2CC2)c2ccccc21,17 nM,66 nM,–
Cc1c(/C=C/C(=O)O)oc2ccc(Cl)c(Oc3ccncc3C(=O)N3CCN(C4CC4)c4ccccc43)c12,25 nM,18 nM,–
CCOC(=O)Cc1coc2cc(Cl)c(Oc3ccncc3C(=O)N3CCN(C4CC4)c4ccccc43)cc12,5.2 nM,38 nM,–
Cc1coc2cc(Cl)c(Oc3ccncc3C(=O)N3CCN(C4CC4)c4ccccc43)cc12,0.28 nM,0.92 nM,Ratio [4]: 891; efflux ratio at 95 min [5]: 0.71; Ratio [6]: 153; Ratio [7]: 1030; Activity [8]: 97%; Papp B→A at 95 min [9]: 1.5 ×10⁻⁶ cm/s; concentration at 3 h [10]: 65 ng/mL; Activity [11]: 33%; Papp A→B at 95 min [12]: 2.1 ×10⁻⁶ cm/s; concentration at 3 h [13]: 438 ng/mL; concentration at 3 h [14]: 410 ng/mL
O=C(c1cnccc1Oc1ccc2cccnc2c1)N1CCN(C2CC2)c2ccccc21,59 nM,–,–
O=C(c1cnccc1Oc1cccc2[nH]ccc12)N1CCN(C2CC2)c2ccccc21,148 nM,–,–
O=C(c1cnccc1Oc1ccc2ccoc2c1)N1CCN(C2CC2)c2ccccc21,25 nM,43 nM,–
O=C(c1cnccc1Oc1cc2ccoc2cc1Cl)N1CCN(C2CC2)c2ccccc21,1.4 nM,10 nM,–

Structure (SMILES),EC50 [1],EC50 [2],further results
Cc1noc2ccc(Oc3ccncc3C(=O)N3CCN(C4CC4)c4ccccc43)cc12,1.5 nM,5.5 nM,–
CCOC(=O)c1coc2cc(Cl)c(Oc3ccncc3C(=O)N3CCN(C4CC4)c4ccccc43)cc12,1.7 nM,39 nM,–
Cc1c(C(=O)O)oc2cc(Cl)c(Oc3ccncc3C(=O)N3CCN(C4CC4)c4ccccc43)cc12,63 nM,–,–
Cc1c(CCC(=O)O)oc2ccc(Cl)c(Oc3ccncc3C(=O)N3CCN(C4CC4)c4ccccc43)c12,35 nM,101 nM,–
CCOC(=O)CNC(=O)/C=C/c1oc2ccc(Cl)c(Oc3ccncc3C(=O)N3CCN(C4CC4)c4ccccc43)c2c1C,8.5 nM,6.1 nM,efflux ratio at 95 min [5]: 0.48; Papp B→A at 95 min [9]: 0.5 ×10⁻⁶ cm/s; Papp A→B at 95 min [12]: 1.04 ×10⁻⁶ cm/s
O=C(c1cnccc1Oc1ccc(O)cc1)N1CCN(C2CC2)c2ccccc21,–,–,EC50 [15]: Not Active
O=C(c1cnccc1Oc1cccc2cccnc12)N1CCN(C2CC2)c2ccccc21,178 nM,–,–
CCOC(=O)CNC(=O)c1oc2cc(Cl)c(Oc3ccncc3C(=O)N3CCN(C4CC4)c4ccccc43)cc2c1C,78 nM,–,–
O=C(O)Cc1coc2cc(Cl)c(Oc3ccncc3C(=O)N3CCN(C4CC4)c4ccccc43)cc12,1360 nM,–,–
CCOC(=O)CNC(=O)CCc1coc2cc(Cl)c(Oc3ccncc3C(=O)N3CCN(C4CC4)c4ccccc43)cc12,119 nM,–,–
O=C(c1cnccc1Oc1ccc2ccccc2c1)N1CCN(C2CC2)c2ccccc21,41 nM,–,–
O=C(c1cnccc1Oc1ccc2occc2c1)N1CCN(C2CC2)c2ccccc21,10.7 nM,28 nM,–
O=C(c1cnccc1Oc1cccc2ncccc12)N1CCN(C2CC2)c2ccccc21,40 nM,–,–
Cc1c(Br)oc2cc(Cl)c(Oc3ccncc3C(=O)N3CCN(C4CC4)c4ccccc43)cc12,7.7 nM,66 nM,–
O=C(c1cnccc1Oc1ccc2ncccc2c1)N1CCN(C2CC2)c2ccccc21,64 nM,–,–
O=C(O)CCc1coc2cc(Cl)c(Oc3ccncc3C(=O)N3CCN(C4CC4)c4ccccc43)cc12,675 nM,–,–
CC(=O)c1cccc(Oc2ccncc2C(=O)N2CCN(C3CC3)c3ccccc32)c1,–,–,EC50 ([15]; read-out: EC50): 5.5 nM
CC(=O)c1cc(C(=O)N2CCN(C3CC3)c3ccccc32)ccc1O,–,–,EC50 ([15]; read-out: EC50): 2.3 nM
CCOC(=O)c1oc2cc(Cl)c(Oc3ccncc3C(=O)N3CCN(C4CC4)c4ccccc43)cc2c1C,38 nM,–,–
Cc1coc2ccc(Oc3ccncc3C(=O)N3CCN(C4CC4)c4ccccc43)cc12,0.45 nM,2.4 nM,–
